Laboratory results from ChEMBL document CHEMBL1128654, “4,4-Diphenyl-7-perhydrothiapyrano[3,4-c]pyrrolone, a new series of substance P receptors antagonists” (Bioorg Med Chem Lett, 1995).

Columns and labels:
[1] = molecular target: Substance-P receptor (Homo sapiens, UniProt P25103); assay: Compound was tested for its binding affinity to NK1 receptor in [3H]SP binding assay on human IM9 lymphoblasts cultured cell line.
[2] = molecular target: Substance-P receptor (Rattus norvegicus, UniProt P14600); assay: Compound was tested for its binding affinity to NK1 receptor in [3H]SP binding assay on rat brain membranes.
[3] = test system: Rattus norvegicus; assay: Compound was administered perorally and evaluated in vivo for its inhibition of SP-induced plasma extravasation in rat; type: functional; settings: po
[4] = test system: Rattus norvegicus; assay: Compound was administered intravenously and evaluated in vivo for its inhibition of SP-induced plasma extravasation in rat; type: functional; settings: iv
[5] = test system: Rattus norvegicus; assay: Compound was administered orally and evaluated in vivo for its inhibition of SP-induced plasma extravasation in rat; type: functional; settings: po

Sequence of Substance-P receptor (Rattus norvegicus, UniProt P14600) (P14600 whole entry): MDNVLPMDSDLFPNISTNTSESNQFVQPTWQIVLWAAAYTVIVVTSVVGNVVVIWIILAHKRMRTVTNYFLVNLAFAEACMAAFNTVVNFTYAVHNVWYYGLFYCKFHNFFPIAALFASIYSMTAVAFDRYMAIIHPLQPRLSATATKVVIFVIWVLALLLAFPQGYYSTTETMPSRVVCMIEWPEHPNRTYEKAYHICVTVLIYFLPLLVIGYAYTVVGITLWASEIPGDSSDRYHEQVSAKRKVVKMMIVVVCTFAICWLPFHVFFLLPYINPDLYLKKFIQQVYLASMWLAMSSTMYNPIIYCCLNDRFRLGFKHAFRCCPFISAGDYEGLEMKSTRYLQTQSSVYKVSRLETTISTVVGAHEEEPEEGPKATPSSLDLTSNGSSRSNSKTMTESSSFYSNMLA
Sequence of Substance-P receptor (Homo sapiens, UniProt P25103) (P25103 whole entry): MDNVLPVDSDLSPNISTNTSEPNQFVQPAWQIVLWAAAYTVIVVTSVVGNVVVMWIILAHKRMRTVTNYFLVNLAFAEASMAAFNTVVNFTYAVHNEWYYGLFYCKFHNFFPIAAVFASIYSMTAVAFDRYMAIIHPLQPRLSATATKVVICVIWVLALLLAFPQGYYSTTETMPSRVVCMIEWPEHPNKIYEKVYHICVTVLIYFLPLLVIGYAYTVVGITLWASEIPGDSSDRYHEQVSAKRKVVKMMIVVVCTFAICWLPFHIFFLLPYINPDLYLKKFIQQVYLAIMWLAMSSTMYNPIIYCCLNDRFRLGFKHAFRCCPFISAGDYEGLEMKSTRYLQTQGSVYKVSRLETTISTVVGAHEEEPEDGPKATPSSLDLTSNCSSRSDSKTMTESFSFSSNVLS

Row | Structure (SMILES) | IC50 [1] [nM] | IC50 [2] [nM] | ED50 [3] [mg/kg] | ED50 [4] [mg/kg] | ED50 [5] [mg/kg]
1 | CN(C)c1ccccc1CC(=O)N1CC2C(=O)CSC(c3ccccc3)(c3ccccc3)C2C1 (stereo unspecified) | 83 | 41 |  |  | 
2 | CN(C)c1ccccc1CC(=O)N1C[C@@H]2C(=O)C[S+]([O-])C(c3ccccc3)(c3ccccc3)[C@@H]2C1 (stereo partly specified) |  | 470 |  |  | 
3 | COc1ccccc1[C@H](SC)C(=O)N1CC2C(=O)CSC(c3ccccc3)(c3ccccc3)C2C1 (stereo partly specified) | 15 | 5 | 0.8 | 0.1 | 
4 | COc1ccccc1[C@H](C)C(=O)N1C[C@@H]2[C@H](C1)C(c1ccccc1)(c1ccccc1)CC[C@@]2(O)c1ccccc1OC [DAPITANT] | 13 | 1400 |  |  | 
5 | CN(C)CCCOc1ccccc1CC(=O)N1CC2C(=O)CSC(c3ccccc3)(c3ccccc3)C2C1 (stereo unspecified) | 51 | 26 |  |  | 

Further compounds by falling IC50 [2], results first:

Row | IC50 [1] [nM] | IC50 [2] [nM] | Structure (SMILES) | ED50 [3] [mg/kg] | ED50 [4] [mg/kg] | ED50 [5] [mg/kg]
6 | 38 | 3000 | COc1ccccc1[C@H](C)C(=O)N1C[C@@H]2[C@H](C1)[C@@](O)(c1ccccc1OC)CSC2(c1ccccc1)c1ccccc1 |  |  | 
7 | 370 | 77 | CN(C)c1ccccc1CC(=O)N1C[C@H]2[C@@H](C1)C(c1ccccc1)(c1ccccc1)SC[C@@H]2O |  |  | 
8 | 49 | 8 | COc1ccccc1CC(=N)N1C[C@@H]2C(=O)CCC(c3ccccc3)(c3ccccc3)[C@@H]2C1 |  |  | 
9 | 9 | 2 | COc1ccccc1CC(=N)N1CC2C(=O)CSC(c3ccccc3)(c3ccccc3)C2C1 (stereo unspecified) |  | < 1 | > 10
